Reference: ChEMBL document CHEMBL1128998, “Chemical synthesis, DNA cleavage and antitumor activity of molecules with (Z)-7-sulfonyl-3-hexene-1,5-diyne functionalities” (Bioorg Med Chem Lett, 1996)
≈ marks a conversion by molar mass, not a printed value.

How the values were obtained:
Format in all cases: functional, cell-based
Conditions in all cases: Homo sapiens
[1] = system: KB; assay: Compound was tested in vitro for growth inhibition of KB, oral epidermoid cell line; Range=4-10 ug/ml
[2] = system: SK-BR-3; assay: Compound was tested in vitro for growth inhibition of SK-BR-3, breast adenocarcinoma cell line; Range=4-10 ug/ml
[3] = system: HepG2; assay: Compound was tested in vitro for growth inhibition of Hep G2, […] cell line.
[4] = system: COLO 205; assay: Compound was tested in vitro for growth inhibition of COLO 205, colon cell line; Range=4-10 ug/ml
[5] = system: MOLT-4; assay: Compound was tested in vitro for growth inhibition of Molt-4, leukemia cell line.
[6] = system: HepG2; assay: Compound was tested in vitro for growth inhibition of Hep G2, […] cell line
[7] = system: HepG2; assay: Compound was tested in vitro for growth inhibition of Hep G2, […] cell line; Range=4-10 ug/ml
[8] = system: KB; assay: Compound was tested in vitro for growth inhibition of KB, oral epidermoid cell line.
[9] = system: COLO 205; assay: Compound was tested in vitro for growth inhibition of COLO 205, colon cell line.
[10] = system: SK-BR-3; assay: Compound was tested in vitro for growth inhibition of SK-BR-3, […] cell line.

SMILES | IC50 [1] [µg/mL] | IC50 [2] [µg/mL] | IC50 [3] [µg/mL] | IC50 [4] [µg/mL] | IC50 [5] [µg/mL] | IC50 [6] [µg/mL] | IC50 [7] [µg/mL] | IC50 [8] [µg/mL] | IC50 [9] [µg/mL] | IC50 [10] [µg/mL]
COC(=O)c1ccccc1S(=O)(=O)CC#C/C=C\C#CCO | 10 (≈ 31.4 µM) | 10 (≈ 31.4 µM) | > 10 | 10 (≈ 31.4 µM) |  |  |  |  |  | 
O=S(=O)(CC#C/C=C\C#CCO)c1ccc2ccccc2c1 | 10 (≈ 32.2 µM) | 10 (≈ 32.2 µM) | > 10 | 10 (≈ 32.2 µM) | < 4 |  |  |  |  | 
O=S(=O)(CC#C/C=C\C#CCO)c1ccccc1 | 10 (≈ 38.4 µM) | 10 (≈ 38.4 µM) |  | 10 (≈ 38.4 µM) |  | > 10 |  |  |  | 
O=S(=O)(CC#Cc1cc2ccccc2cc1C#CCO)c1ccccc1 |  | 10 (≈ 27.7 µM) |  | 10 (≈ 27.7 µM) | < 4 |  | 10 (≈ 27.7 µM) | 10 (≈ 27.7 µM) |  | 
O=S(=O)(CC#Cc1ccccc1C#CCO)c1ccccc1 |  |  |  |  | < 4 |  | 10 (≈ 32.2 µM) | 10 (≈ 32.2 µM) | < 4 | < 4
O=S(=O)(CC#Cc1ccccc1C#CCO)c1ccc2ccccc2c1 |  |  | < 4 |  |  |  |  |  |  | 
COc1ccc(S(=O)(=O)CC#C/C=C\C#CCO)cc1 | 10 (≈ 34.4 µM) | 10 (≈ 34.4 µM) | > 10 | 10 (≈ 34.4 µM) |  |  |  |  |  | 
